This is an account of results in ChEMBL document CHEMBL1201862, “PubChem BioAssay data set” (2004).

In general, GI50 refers to the concentration that inhibits growth by half.

Test systems include ACHN; EKVX; HOP-62; K562; MDA-N; NCI-H226; NCI-H23; OVCAR-3; OVCAR-4; RXF 393; SF-268; SK-MEL-2; SK-OV-3; SR; U-251; UACC-257; UO-31; IGROV-1; RPMI-8226.
Test in all cases: DTP human tumour cell line panel, 48 h

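Following 48 hours of exposure in 96-well plates, responses at five concentrations were used to interpolate endpoints linearly. Here, GI50 denotes the concentration required for 50% inhibition of growth.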 Activity calls are given as the source filed them. Cut-off read from the data, not from the text of the source: active = GI50 up to about 1.1 µM and inactive = higher.

Consider `COc1ccc(C(SCCO)(c2ccccc2)c2ccccc2)cc1`, for which the GI50 in the test on ACHN is 14.1 µM (inactive); in the test with EKVX, 12.9 µM (inactive); in the test with HOP-62, 15.4 µM (inactive); with K562, 12.9 µM (inactive); in the test with MDA-N, 8.26 µM (inactive); with NCI-H226 it was 12.7 µM (inactive). In addition, the GI50 is 16.9 µM (inactive) in the test with NCI-H23; 14 µM (inactive) in the test with OVCAR-3; 15.6 µM (inactive) with OVCAR-4; 16.1 µM (inactive) with RXF 393; 14.6 µM (inactive) in the test with SF-268; 13.1 µM (inactive) in the test on SK-MEL-2. Further, the GI50 was 16.5 µM (inactive) in the test with SK-OV-3; 21.6 µM (inactive) in the test with SR; 13.1 µM (inactive) in the test with U-251; 17.4 µM (inactive) in the test on UACC-257; 14.9 µM (inactive) with UO-31.

Consider `Clc1ccc(/N=C2\c3ccccc3CN2c2ccc(Cl)cc2)cc1`, for which the GI50 in the test with ACHN is 0.668 µM (active); with EKVX it was > 100 µM (inactive); with HOP-62 it was 63.1 µM (inactive); in the test on IGROV-1, 39.8 µM (inactive); in the test on K562, 0.119 µM (active); in the test on MDA-N it was 30.1 µM (inactive). Besides, the GI50 in the test on NCI-H226 was > 100 µM (inactive); in the test on NCI-H23, 89.5 µM (inactive); with OVCAR-3, 52.7 µM (inactive); in the test on OVCAR-4, 61.9 µM (inactive); in the test on RPMI-8226, 7.69 µM (inactive); in the test with RXF 393, 29.8 µM (inactive). Further, the GI50 in the test with SF-268 is 47.1 µM (inactive); in the test on SK-MEL-2, 4.68 µM (inactive); in the test on SK-OV-3, > 100 µM (inactive); in the test on U-251, > 100 µM (inactive); in the test on UACC-257, > 100 µM (inactive); in the test with UO-31, > 100 µM (inactive).

`O=C(O)CCC(NC(=O)/C(=C/c1ccccc1)NC(=O)c1ccccc1)C(=O)O` (centres undefined): the GI50 in the test on ACHN, in the test on EKVX, in the test on HOP-62, with IGROV-1, in the test on K562 and in the test with MDA-N was > 100 µM (inactive) in each case. The GI50 in the test with NCI-H226, in the test on NCI-H23, in the test with OVCAR-3, with OVCAR-4, in the test on RPMI-8226 and in the test with RXF 393 was > 100 µM (inactive) throughout. The GI50 with SF-268, with SK-MEL-2, in the test with SK-OV-3, in the test with UACC-257 and with UO-31 was > 100 µM (inactive) throughout.

On to `COc1ccc(CC(O)CN2CCOCC2)cc1` (centres undefined), for which the GI50 with ACHN, in the test on EKVX, in the test with HOP-62, with IGROV-1, with K562 and with MDA-N was > 100 µM (inactive) in each case. Moreover, the GI50 in the test with NCI-H226, with NCI-H23, in the test with OVCAR-3, in the test on OVCAR-4, in the test with RXF 393 and in the test with SF-268 was > 100 µM (inactive) each time. In addition, the GI50 in the test on SK-MEL-2, with SR, in the test on U-251, in the test on UACC-257 and in the test on UO-31 was > 100 µM (inactive) each time.

Regarding `N#Cc1c(-c2ccccc2)nc(-c2ccccc2)sc1=S`, the GI50 with ACHN, in the test on EKVX, with HOP-62, in the test with IGROV-1, with K562 and in the test with MDA-N was > 100 µM (inactive) each time. Further, the GI50 with NCI-H226, with NCI-H23, with OVCAR-3, in the test with OVCAR-4, in the test on RPMI-8226 and with RXF 393 was > 100 µM (inactive) each time. Also, the GI50 in the test with SF-268, in the test with SK-MEL-2, in the test on SK-OV-3, in the test on U-251, with UACC-257 and in the test on UO-31 was > 100 µM (inactive) throughout.

For `COc1cc(-c2oc3c(OC)c(O)c(OC)c(O)c3c(=O)c2OC)cc(O)c1OC`, the GI50 was 50.6 µM (inactive) in the test on ACHN; 39.2 µM (inactive) in the test with EKVX; 40.5 µM (inactive) with HOP-62; 12.1 µM (inactive) in the test on IGROV-1; 26.5 µM (inactive) with K562; 17.7 µM (inactive) in the test with MDA-N. Further, the GI50 in the test on NCI-H226 is > 100 µM (inactive); in the test on NCI-H23, 22.6 µM (inactive); with OVCAR-3 it was 24.7 µM (inactive); with OVCAR-4 it was > 100 µM (inactive); in the test with RPMI-8226, 23.8 µM (inactive); in the test on RXF 393, 27.1 µM (inactive). In addition, the GI50 in the test on SK-MEL-2 is 55.1 µM (inactive); in the test with SK-OV-3 it was 16.4 µM (inactive); in the test on U-251, 43.4 µM (inactive); in the test with UACC-257, 51.2 µM (inactive); in the test on UO-31, 23.5 µM (inactive).

As for `CN1CCCCCC(=N\O)/C(=N/O)CCCCC1`, the GI50 with ACHN, in the test with EKVX, with HOP-62, in the test on IGROV-1, with K562 and in the test on MDA-N was > 100 µM (inactive) in each case. Moreover, the GI50 with NCI-H226, with NCI-H23, with OVCAR-3, in the test with RXF 393, with SF-268 and with SR was > 100 µM (inactive) in each case. The GI50 in the test on U-251, with UACC-257 and in the test with UO-31 was > 100 µM (inactive) throughout.

As to `O=S(=O)(O)c1ccc(/N=N/c2ccc(/N=N/c3c(O)c(S(=O)(=O)O)cc4cc(S(=O)(=O)O)ccc34)cc2)cc1`, the GI50 in the test with ACHN, in the test with EKVX, with HOP-62, in the test with IGROV-1, in the test on K562 and with MDA-N was > 100 µM (inactive) in each case. The GI50 in the test with NCI-H226, with NCI-H23, in the test with OVCAR-3, in the test on OVCAR-4, with RPMI-8226 and in the test with RXF 393 was > 100 µM (inactive) each time. Besides, the GI50 with SF-268, in the test with SK-MEL-2, with SK-OV-3, in the test with U-251, in the test with UACC-257 and in the test with UO-31 was > 100 µM (inactive) in each case.

Turning to `COc1ccc(/C=N/n2c(Cc3ccc(Cl)cc3)n[nH]c2=O)c(OC)c1`, the GI50 in the test with ACHN is 44.7 µM (inactive); in the test with EKVX, 33.1 µM (inactive); in the test on HOP-62, > 100 µM (inactive); in the test with IGROV-1, 20.8 µM (inactive); in the test on K562 it was > 100 µM (inactive); in the test on MDA-N, 57.9 µM (inactive). Besides, the GI50 in the test with NCI-H226 was 29.9 µM (inactive); in the test with NCI-H23, 29.4 µM (inactive); in the test on OVCAR-3, 35.2 µM (inactive); in the test with OVCAR-4, 16 µM (inactive); with RPMI-8226 it was > 100 µM (inactive); in the test on RXF 393, 19.1 µM (inactive). Further, the GI50 was 13.5 µM (inactive) in the test with SF-268; 53 µM (inactive) with SK-MEL-2; 26.1 µM (inactive) in the test with SK-OV-3; 32.2 µM (inactive) in the test on U-251; 41.1 µM (inactive) in the test on UACC-257; > 100 µM (inactive) with UO-31.

As for `COc1cc(/C=C2\Cc3cc(OC)c(OC)cc3C2=O)cc(OC)c1`, the GI50 with ACHN is > 58.2 µM (inactive); with EKVX it was > 100 µM (inactive); in the test with HOP-62 it was 15.8 µM (inactive); with IGROV-1, 5.93 µM (inactive); with K562, 0.479 µM (active); with MDA-N, 0.771 µM (active). In addition, the GI50 in the test on NCI-H226 was > 100 µM (inactive); with NCI-H23, 17.6 µM (inactive); with OVCAR-3, > 92.3 µM (inactive); in the test with OVCAR-4, > 45.4 µM (inactive); in the test with RPMI-8226, > 33.6 µM (inactive); in the test on RXF 393 it was 19.8 µM (inactive). The GI50 was 45.9 µM (inactive) in the test with SF-268; > 60 µM (inactive) in the test on SK-MEL-2; 17 µM (inactive) with SK-OV-3; 35.8 µM (inactive) in the test with U-251; > 87.3 µM (inactive) in the test with UACC-257; > 100 µM (inactive) with UO-31.

As for `Cc1ccc(Cc2nnc(S)[nH]2)cc1`, the GI50 in the test with ACHN is 63.7 µM (inactive); in the test on EKVX it was > 100 µM (inactive); in the test with HOP-62 it was 61.9 µM (inactive); in the test with IGROV-1, 50.8 µM (inactive); with K562, 94.8 µM (inactive); in the test with MDA-N, > 100 µM (inactive). The GI50 was > 100 µM (inactive) in the test on NCI-H226; 81.3 µM (inactive) with NCI-H23; > 100 µM (inactive) in the test with OVCAR-3; 32.3 µM (inactive) in the test on OVCAR-4; > 100 µM (inactive) in the test on SK-MEL-2; > 100 µM (inactive) in the test with SK-OV-3. The GI50 in the test on SR was > 100 µM (inactive); in the test on U-251 it was > 100 µM (inactive); in the test on UACC-257, > 100 µM (inactive); in the test with UO-31 it was 79.8 µM (inactive).

As for `CN(C)CCCNC(=O)N/N=C/c1ccc(O)cc1`, the GI50 in the test with ACHN, in the test with HOP-62, in the test on IGROV-1, in the test with K562, in the test with MDA-N and in the test with NCI-H226 was > 100 µM (inactive) in each case. The GI50 with NCI-H23, in the test on OVCAR-3, in the test on SF-268, in the test with SK-MEL-2, in the test with SK-OV-3 and in the test on SR was > 100 µM (inactive) each time. For the same molecule, the GI50 in the test on U-251, in the test on UACC-257 and in the test with UO-31 was > 100 µM (inactive) each time.
